The record followed here is patent US11873295B2, “Allosteric chromenone inhibitors of phosphoinositide 3-kinase (PI3K) for the treatment of disease” (Petra Pharma Corporation, priority 2021, dated 2024).

The target of assay [1] is T1, human full length PIK3KA Wild-type (p110α/p85α complex) (Homo sapiens, UniProt P42336).
T1 construct: Recombinant, catalytically active human full length PIK3KA Wild-type and H1047R mutant were purchased as 1:1 complex; 6xHis (N); purchased EMD Millipore Sigma 14-602M
As to the kind of experiment: PI3K-alpha kinase (PIK3CA) biochemical activity, wild-type, ADP-Glo. Particulars: PI3K-α (PIK3CA) biochemical, Soy PI lipid substrate. An outline of the steps: (§1)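 Full-length His-p110α/p85α complex, wild-type or H1047R, 1–5 nM, preincubated with compound 1 h at 27 °C in HEPES pH 7.4, 25 mM MgCl2, 0.01% Triton X-100, 1% DMSO. Reaction with 20 μM ATP and 50 μM PIP2diC8 or soy PI at 27 °C to ~10% ATP conversion; ADP-Glo luminescence. IC50 from 10-point four-parameter logistic fit.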

Assay [2] concerns the target T2, human full length PIK3KA H1047R mutant (p110α/p85α complex) (Homo sapiens, UniProt P42336, H1047R).
T2 construct: Recombinant, catalytically active human full length PIK3KA Wild-type and H1047R mutant were purchased as 1:1 complex; 6xHis (N); purchased EMD Millipore Sigma 14-792M
As to the kind of experiment: PI3K-alpha kinase (PIK3CA) biochemical activity, H1047R mutant, ADP-Glo. As to conditions: PI3K-α (PIK3CA) biochemical, H1047R mutant, Soy PI lipid substrate. An outline of the steps: as §1

The subject of assay [3] is PI3K-α (PIK3CA) in MDA-MB-453 cells. In words: PI3K-alpha kinase (PIK3CA) activity in vitro cell based assay, MDA-MB-453 cells, AlphaLisa SureFire. As to conditions: 0% FBS, 3 hours treatment, relative IC50. The method, boiled down:
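MDA-MB-453 cells in serum-free MEM with 1 μg/mL insulin treated 3 h with 10-point 1:3 compound dilutions, 0.3% DMSO. Lysates read by AlphaLisa SureFire; percent inhibition relative to DMSO (max) and 1 μM GDC-0032 (min), duplicate means fitted to 4-parameter logistic for relative IC50.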

A value given as a limit tells only on which side of the number the result lay.

T2 sequence (P42336 whole entry H1047R): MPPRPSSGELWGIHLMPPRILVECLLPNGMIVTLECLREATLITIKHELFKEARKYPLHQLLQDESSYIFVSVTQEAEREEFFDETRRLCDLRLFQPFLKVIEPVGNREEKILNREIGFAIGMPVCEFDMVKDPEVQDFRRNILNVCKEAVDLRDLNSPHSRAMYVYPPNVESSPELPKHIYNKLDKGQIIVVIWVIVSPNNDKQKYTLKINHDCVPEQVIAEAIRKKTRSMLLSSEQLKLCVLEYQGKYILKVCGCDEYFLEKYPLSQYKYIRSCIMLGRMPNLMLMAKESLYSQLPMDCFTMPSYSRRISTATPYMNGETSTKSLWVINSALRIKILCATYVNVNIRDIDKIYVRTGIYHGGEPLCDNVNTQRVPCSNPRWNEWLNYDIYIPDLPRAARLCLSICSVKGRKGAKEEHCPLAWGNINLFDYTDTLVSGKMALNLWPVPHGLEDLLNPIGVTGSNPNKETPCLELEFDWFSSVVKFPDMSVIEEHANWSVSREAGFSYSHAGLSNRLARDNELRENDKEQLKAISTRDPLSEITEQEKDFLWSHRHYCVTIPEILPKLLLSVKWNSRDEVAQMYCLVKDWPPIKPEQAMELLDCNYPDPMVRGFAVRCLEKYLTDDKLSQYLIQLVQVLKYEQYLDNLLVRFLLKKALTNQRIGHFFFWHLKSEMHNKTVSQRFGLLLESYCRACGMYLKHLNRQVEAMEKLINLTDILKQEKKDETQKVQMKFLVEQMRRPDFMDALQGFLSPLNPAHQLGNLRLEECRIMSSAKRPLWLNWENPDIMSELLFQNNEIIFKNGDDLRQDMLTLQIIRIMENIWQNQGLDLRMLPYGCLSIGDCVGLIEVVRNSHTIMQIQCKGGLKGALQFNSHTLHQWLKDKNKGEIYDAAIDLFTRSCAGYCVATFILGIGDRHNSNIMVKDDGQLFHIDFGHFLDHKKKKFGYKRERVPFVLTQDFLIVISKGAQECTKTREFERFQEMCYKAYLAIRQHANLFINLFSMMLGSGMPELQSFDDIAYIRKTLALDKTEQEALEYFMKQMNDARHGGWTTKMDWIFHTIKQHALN
T2 sequence (P27986 whole entry partner): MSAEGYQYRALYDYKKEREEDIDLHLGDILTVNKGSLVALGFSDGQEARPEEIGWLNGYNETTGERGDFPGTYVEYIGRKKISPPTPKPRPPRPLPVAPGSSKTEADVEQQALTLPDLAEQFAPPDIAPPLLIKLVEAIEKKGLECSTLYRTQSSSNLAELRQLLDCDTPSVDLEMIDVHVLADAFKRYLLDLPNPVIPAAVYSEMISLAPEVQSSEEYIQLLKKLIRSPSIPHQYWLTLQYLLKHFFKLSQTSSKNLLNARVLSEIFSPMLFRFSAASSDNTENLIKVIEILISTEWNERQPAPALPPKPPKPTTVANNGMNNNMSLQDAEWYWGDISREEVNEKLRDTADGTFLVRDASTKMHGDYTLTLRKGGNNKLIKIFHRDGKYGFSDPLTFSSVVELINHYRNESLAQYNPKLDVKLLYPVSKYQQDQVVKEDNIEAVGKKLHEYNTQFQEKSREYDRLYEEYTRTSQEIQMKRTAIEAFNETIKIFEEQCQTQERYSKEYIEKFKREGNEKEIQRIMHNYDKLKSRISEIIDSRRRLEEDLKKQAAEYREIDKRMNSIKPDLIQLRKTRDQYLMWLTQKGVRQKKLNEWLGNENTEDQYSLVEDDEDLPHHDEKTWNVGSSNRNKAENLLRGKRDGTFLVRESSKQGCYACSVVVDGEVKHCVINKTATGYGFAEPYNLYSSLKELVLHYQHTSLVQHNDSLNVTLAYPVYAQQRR

As for `Cc1c(-c2ccc(F)cc2F)oc2c([C@@H](C)Nc3ccc(Cl)nc3C(=O)O)cc(C(F)(F)F)cc2c1=O` [Example 99, 6-Chloro-3-[[(1R)-1-[2-(2,4-difluorophenyl)-3-methyl-4-oxo-6-(trifluoromethyl)-chromen-8-yl]ethyl]amino]pyridine-2-carboxylic acid], the IC50 in assay [1] was 0.5 to 1 µM; in assay [2], under 0.5 µM; in assay [3] (Homo sapiens, MDA-MB-453, 3 h), under 0.05 µM.

As for `Cc1cc(C(C)Nc2ccc(C)nc2C(=O)O)c2oc(-c3ccccc3)c(C(F)(F)F)c(=O)c2c1` (stereo not drawn) [Example 101, 6-Methyl-3-[1-[6-methyl-4-oxo-2-phenyl-3-(trifluoromethyl)-chromen-8-yl]ethylamino]pyridine-2-carboxylic acid 2,2,2-trifluoroacetic acid], the half-maximal inhibitory concentration (IC50) in assay [1] is under 0.5 µM; in assay [2], under 0.5 µM; in assay [3] (Homo sapiens, MDA-MB-453, 3 h), under 0.05 µM.

Take `Cc1c(-c2ccccc2)oc2c([C@@H](C)Nc3ccccc3C(=O)O)cc(C(F)(F)F)cc2c1=O` [Example 102, 2-[[(1R)-1-[3-Methyl-4-oxo-2-phenyl-6-(trifluoromethyl)-chromen-8-yl]ethyl]amino]benzoic acid]: the half-inhibitory concentration (IC50) in assay [1] was 1 to 5 µM; in assay [2] it was under 0.5 µM; in assay [3] (Homo sapiens, MDA-MB-453, 3 h), under 0.05 µM.

Turning to `Cc1cc(C(C)Nc2ccccc2C(=O)O)c2oc(-c3ccccc3)c(F)c(=O)c2c1` (stereo not drawn) [Example 111, 2-[1-(3-Fluoro-6-methyl-4-oxo-2-phenyl-chromen-8-yl)ethylamino]benzoic acid 2,2,2-trifluoroacetic acid], the IC50 in assay [1] is 1 to 5 µM; in assay [2], under 0.5 µM; in assay [3] (Homo sapiens, MDA-MB-453, 3 h), under 0.05 µM.

`Cc1cc([C@@H](C)Nc2ccccc2C(=O)O)c2oc(-c3ccccc3)c(C3COC3)c(=O)c2c1` [Example 112, 2-[[(1R)-1-[6-methyl-3-(oxetan-3-yl)-4-oxo-2-phenyl-chromen-8-yl]ethyl]amino]benzoic acid 2,2,2-trifluoroacetic acid]: the concentration for half-maximal inhibition (IC50) in assay [1] was 1 to 5 µM; in assay [2] it was under 0.5 µM; in assay [3] (Homo sapiens, MDA-MB-453, 3 h), 0.05 to 0.1 µM.

For `Cc1cc([C@@H](C)Nc2ccc(Cl)nc2C(=O)O)c2oc(-c3ccc(F)c(F)c3)c(C)c(=O)c2c1` [Example 113, 6-Chloro-3-[[(1R)-1-[2-(3,4-difluorophenyl)-3,6-dimethyl-4-oxo-chromen-8-yl]ethyl]amino]pyridine-2-carboxylic acid], the half-maximal inhibitory concentration (IC50) is 1 to 5 µM in assay [1]; under 0.5 µM in assay [2]; under 0.05 µM in assay [3] (Homo sapiens, MDA-MB-453, 3 h).

In the case of `Cc1cc([C@@H](C)Nc2ccc(Cl)nc2C(=O)O)c2oc(-c3ccccc3F)c(C)c(=O)c2c1` [Example 114, 6-Chloro-3-[[(1R)-1-[2-(2-fluorophenyl)-3,6-dimethyl-4-oxo-chromen-8-yl]ethyl]amino]pyridine-2-carboxylic acid 2,2,2-trifluoroacetic acid], the 50% inhibitory concentration (IC50) in assay [1] is 1 to 5 µM; in assay [2] it was under 0.5 µM; in assay [3] (Homo sapiens, MDA-MB-453, 3 h), under 0.05 µM.

As for `Cc1cc([C@@H](C)Nc2ccc(Cl)nc2C(=O)O)c2oc(-c3cccc(C#N)c3)c(C)c(=O)c2c1` [Example 115, 6-Chloro-3-[[(1R)-1-[2-(3-cyanophenyl)-3,6-dimethyl-4-oxo-chromen-8-yl]ethyl]amino]pyridine-2-carboxylic acid 2,2,2-trifluoroacetic acid], the IC50 was under 0.5 µM in assay [1]; under 0.5 µM in assay [2]; under 0.05 µM in assay [3] (Homo sapiens, MDA-MB-453, 3 h).

For `Cc1cc([C@@H](C)Nc2ccccc2C(=O)O)c2oc(-c3cccc(C(C)(C)C#N)c3)c(C)c(=O)c2c1` [Example 117, 2-[[(1R)-1-[2-[3-(1-Cyano-1-methyl-ethyl)phenyl]-3,6-dimethyl-4-oxo-chromen-8-yl]ethyl]amino]benzoic acid 2,2,2-trifluoroacetic acid], the IC50 in assay [1] is 1 to 5 µM; in assay [2], under 0.5 µM; in assay [3] (Homo sapiens, MDA-MB-453, 3 h), under 0.05 µM.

For `Cc1cc([C@@H](C)Nc2ccccc2C(=O)O)c2oc(-c3cccc(C(C)(C)C(N)=O)c3)c(C)c(=O)c2c1` [Example 118, 2-[[(1R)-1-[2-[3-(2-Amino-1,1-dimethyl-2-oxo-ethyl)phenyl]-3,6-dimethyl-4-oxo-chromen-8-yl]ethyl]amino]benzoic acid 2,2,2-trifluoroacetic acid], the IC50 was 1 to 5 µM in assay [1]; under 0.5 µM in assay [2]; 0.1 to 0.5 µM in assay [3] (Homo sapiens, MDA-MB-453, 3 h).

With `CC(=O)c1c(-c2ccccc2)oc2c([C@@H](C)Nc3ccccc3C(=O)O)cc(C)cc2c1=O` [Example 119, 2-[[(1R)-1-(3-Acetyl-6-methyl-4-oxo-2-phenyl-chromen-8-yl)ethyl]amino]benzoic acid 2,2,2-trifluoroacetic acid], the concentration for half-maximal inhibition (IC50) was 0.5 to 1 µM in assay [1]; under 0.5 µM in assay [2]; under 0.05 µM in assay [3] (Homo sapiens, MDA-MB-453, 3 h).

Take `Cc1cc([C@@H](C)Nc2cccnc2C(=O)O)c2oc(-c3ccc(F)c(F)c3)c(C)c(=O)c2c1` [Example 120, 3-[[(1R)-1-[2-(3,4-Difluorophenyl)-3,6-dimethyl-4-oxo-chromen-8-yl]ethyl]amino]pyridine-2-carboxylic acid]: the IC50 was over 10 µM in assay [1]; 1 to 5 µM in assay [2]; 0.05 to 0.1 µM in assay [3] (Homo sapiens, MDA-MB-453, 3 h).

With `Cc1cc([C@@H](C)Nc2ccc(Cl)nc2C(=O)O)c2oc(-c3cccc(C#N)c3)c(C)c(=O)c2c1` [Example 121, 6-Chloro-3-[[(1R)-1-[2-(3-cyanophenyl)-3,6-dimethyl-4-oxo-chromen-8-yl]ethyl]amino]pyridine-2-carboxylic acid], the values for the half-maximal inhibitory concentration (IC50) in assay [1], in assay [2] and in assay [3] were 0.5 to 1 µM, under 0.5 µM and under 0.05 µM, respectively.

On to `Cc1c(-c2ccccc2)oc2c([C@@H](C)Nc3cccnc3C(=O)O)cc(C(F)(F)F)cc2c1=O` [Example 122, 3-[[(1R)-1-[3-Methyl-4-oxo-2-phenyl-6-(trifluoromethyl)-chromen-8-yl]ethyl]amino]pyridine-2-carboxylic acid], for which the half-maximal inhibitory concentration (IC50) is over 10 µM in assay [1]; 1 to 5 µM in assay [2]; 0.05 to 0.1 µM in assay [3] (Homo sapiens, MDA-MB-453, 3 h).

For the molecule `Cc1cc([C@@H](C)Nc2ccc(C(F)(F)F)nc2C(=O)O)c2oc(-c3ccc(F)c(F)c3)c(C)c(=O)c2c1` [Example 123, 3-[[(1R)-1-[2-(3,4-Difluorophenyl)-3,6-dimethyl-4-oxo-chromen-8-yl]ethyl]amino]-6-(trifluoromethyl)pyridine-2-carboxylic acid], the IC50 was 1 to 5 µM in assay [1]; under 0.5 µM in assay [2]; under 0.05 µM in assay [3] (Homo sapiens, MDA-MB-453, 3 h).

With `Cc1cc([C@@H](C)Nc2ccc(C)nc2C(=O)O)c2oc(-c3ccc(F)c(F)c3)c(C)c(=O)c2c1` [Example 124, 3-[[(1R)-1-[2-(3,4-Difluorophenyl)-3,6-dimethyl-4-oxo-chromen-8-yl]ethyl]amino]-6-methyl-pyridine-2-carboxylic acid], the IC50 in assay [1] was 1 to 5 µM; in assay [2], under 0.5 µM; in assay [3] (Homo sapiens, MDA-MB-453, 3 h), under 0.05 µM.

Take `Cc1cc([C@@H](C)Nc2cccnc2C(=O)O)c2oc(-c3cccc(C#N)c3)c(C)c(=O)c2c1` [Example 125, 3-[[(1R)-1-[2-(3-Cyanophenyl)-3,6-dimethyl-4-oxo-chromen-8-yl]ethyl]amino]pyridine-2-carboxylic acid]: the IC50 is 5 to 10 µM in assay [1]; 0.5 to 1 µM in assay [2]; 0.05 to 0.1 µM in assay [3] (Homo sapiens, MDA-MB-453, 3 h).

In the case of `Cc1cc([C@@H](C)Nc2ccc(C(F)(F)F)nc2C(=O)O)c2oc(-c3cccc(C#N)c3)c(C)c(=O)c2c1` [Example 126, 3-[[(1R)-1-[2-(3-Cyanophenyl)-3,6-dimethyl-4-oxo-chromen-8-yl]ethyl]amino]-6-(trifluoromethyl)pyridine-2-carboxylic acid], the IC50 in assay [1] is 1 to 5 µM; in assay [2], under 0.5 µM; in assay [3] (Homo sapiens, MDA-MB-453, 3 h), under 0.05 µM.

Turning to `Cc1cc([C@@H](C)Nc2ccc(C)nc2C(=O)O)c2oc(-c3cccc(C#N)c3)c(C)c(=O)c2c1` [Example 127, 3-[[(1R)-1-[2-(3-Cyanophenyl)-3,6-dimethyl-4-oxo-chromen-8-yl]ethyl]amino]-6-methyl-pyridine-2-carboxylic acid], the 50% inhibitory concentration (IC50) is 1 to 5 µM in assay [1]; under 0.5 µM in assay [2]; 0.05 to 0.1 µM in assay [3] (Homo sapiens, MDA-MB-453, 3 h).

With `Cc1cc([C@@H](C)Nc2ccc(C(F)(F)F)cc2C(=O)O)c2oc(-c3cccc(C#N)c3)c(C)c(=O)c2c1` [Example 128, 2-[[(1R)-1-[2-(3-Cyanophenyl)-3,6-dimethyl-4-oxo-chromen-8-yl]ethyl]amino]-5-(trifluoromethyl)benzoic acid], the 50% inhibitory concentration (IC50) in assay [1] was 1 to 5 µM; in assay [2] it was under 0.5 µM; in assay [3] (Homo sapiens, MDA-MB-453, 3 h) it was 0.05 to 0.1 µM.

On to `Cc1cc([C@@H](C)Nc2ccc(F)cc2C(=O)O)c2oc(-c3cccc(C#N)c3)c(C)c(=O)c2c1` [Example 129, 2-[[(1R)-1-[2-(3-Cyanophenyl)-3,6-dimethyl-4-oxo-chromen-8-yl]ethyl]amino]-5-fluoro-benzoic acid], for which the IC50 in assay [1] is under 0.5 µM; in assay [2], under 0.5 µM; in assay [3] (Homo sapiens, MDA-MB-453, 3 h), under 0.05 µM.
